The record followed here is US20230159509A1 (Amathus Therapeutics, Inc., priority 2020, published 2023).

One may read the EC50 as the midpoint of the concentration-response curve. As a reminder, the Emax is the size of the effect at its maximum, as opposed to the concentration needed.

This assay concerns the target T1, TRAP1 enzyme (Homo sapiens, UniProt Q12931).
T1 construct: 150 nM Trap1 enzyme was incubated with various concentrations of the test compound
T1 sequence (Q12931 60-704): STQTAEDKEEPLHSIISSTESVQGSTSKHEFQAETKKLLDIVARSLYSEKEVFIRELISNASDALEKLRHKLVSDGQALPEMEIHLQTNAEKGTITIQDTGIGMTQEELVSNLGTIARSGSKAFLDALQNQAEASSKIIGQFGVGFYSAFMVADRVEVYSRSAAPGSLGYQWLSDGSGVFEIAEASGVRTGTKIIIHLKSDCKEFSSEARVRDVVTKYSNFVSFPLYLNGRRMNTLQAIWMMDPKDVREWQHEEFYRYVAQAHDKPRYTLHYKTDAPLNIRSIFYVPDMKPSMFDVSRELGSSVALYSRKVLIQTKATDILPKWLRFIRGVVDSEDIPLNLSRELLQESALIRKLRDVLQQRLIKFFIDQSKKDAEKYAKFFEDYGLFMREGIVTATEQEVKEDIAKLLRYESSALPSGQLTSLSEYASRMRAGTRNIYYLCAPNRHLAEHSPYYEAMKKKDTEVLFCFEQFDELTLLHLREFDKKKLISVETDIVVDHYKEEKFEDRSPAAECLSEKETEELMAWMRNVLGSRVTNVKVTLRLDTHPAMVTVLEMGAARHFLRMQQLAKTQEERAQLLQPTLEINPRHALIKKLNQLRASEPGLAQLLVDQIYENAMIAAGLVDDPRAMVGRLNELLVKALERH
The assay is described as follows: ADP Glo assay of TRAP1 ATPase activity. The settings on record: for activation at 50 µM: 1 h, compound concentration 50 μM, read-out: ADP-Glo Percent Activation at 50 μM; for EC50: concentration for half maximal activation, read-out: ADP GLO DRC: GeoMean EC50; for Emax: maximal percent activation, read-out: ADP GLO DRC: Mean Emax. The format is biochemical. The method, then:
Potency of test compounds to modulate the ATPase activity of TRAP1 enzyme was evaluated using ADP Glo assay. The assay is based on quantification of the ADP generated from ATP in the ATPase reaction. The assay is performed in two steps; first, after the ATPase reaction an equal volume of ADP-Glo™ Reagent is added to terminate the ATPase reaction and deplete the remaining ATP. Second, the Kinase Detection Reagent is added to simultaneously convert ADP to ATP and allow the newly synthesized ATP to be measured using a luciferase/luciferin reaction.
All the assays were carried out in a 384-well Proxiplate. The buffer used was 25 mM Pipes pH-7.5, 40 mM KCl, 0.05 mM MgCl2, 0.025% BSA, 0.316 mM EGTA, 0.003% Empigen, 0.01% Igepal. 150 nM Trap1 enzyme was incubated with various concentrations of the test compound (0.79 μM-100 μM) at 37° C. for 30 mins (except in blank wells). 20 μM ATP was added to each well to start the reaction. The plate was spun for 1 min at 1200 rpm and then incubated at 37° C. for 60 mins. 5 μl of ADP Glo reagent was added to all the wells and spun the plate for 1 min at 1200 rpm and kept it on a shaker at ambient temperature for 60 mins. 10 μl of kinase detection mix was added to all the wells and the plate was read for Luminescence at 495 nm. The amount of ADP released was estimated from ATP/ADP standard curve generated at the same experimental conditions. Emax (Maximal percent activation) and EC50 (concentration for half maximal activation) were estimated by fitting the dose response data to a sigmoidal curve fitting equation using Graphpad Prism software V. 8.

In the case of `COc1ncc(NC(=O)c2nc3ccccn3n2)cc1S(=O)(=O)Nc1c(C)cccc1C` [compound 2558], the activation at 50 µM fell in the range of 151 to 180%.

For the compound `COc1ncc(NC(=O)c2ncn(C)c2C(F)(F)F)cc1S(=O)(=O)Nc1c(C)cccc1C` [compound 2672], the activation at 50 µM was 120 to 150%.

For the compound `COc1ncc(NC(=O)c2coc(-c3ccccc3)n2)cc1S(=O)(=O)Nc1cc(C(F)(F)F)n[nH]1` [compound 2156], the EC50 lay in the range of 20 to 100 µM and the Emax was 200 to 300%.

Consider `COc1ncc(NC(=O)c2ccn(C3CC3)n2)cc1S(=O)(=O)Nc1c(C)cccc1C` [compound 2562], for which the activation at 50 µM is 181 to 352%.

Regarding `COc1ncc(NC(=O)c2snnc2C)cc1S(=O)(=O)Nc1c(C)cccc1C` [compound 2615], the activation at 50 µM was 120 to 150%.

Regarding `CCc1cccc(C)c1NS(=O)(=O)c1cc(NC(=O)c2csc(-c3ccccc3)n2)cnc1OC` [compound 1393, N-(5-(N-(2-ethyl-6-methylphenyl)sulfamoyl)-6-methoxypyridin-3-yl)-2-phenylthiazole-4-carboxamide], the EC50 is below 10 µM and the Emax lay within 119 to 159%.

`COc1ncc(NC(=O)c2ncc(-c3ccccc3)o2)cc1S(=O)(=O)Nc1cc(F)c(C#N)cc1F` [compound 1538]: the EC50 fell in the range of 20 to 100 µM and the Emax was 119 to 159%.

As for `COc1ncc(NC(=O)c2nn(C)c3c2CCCC3)cc1S(=O)(=O)Nc1c(C)cccc1C` [compound 1424, N-(5-(N-(2,6-dimethylphenyl)sulfamoyl)-6-methoxypyridin-3-yl)-1-methyl-4,5,6,7-tetrahydro-1H-indazole-3-carboxamide], the EC50 lay in the range of 10 to 20 µM and the Emax was in the range of 200 to 300%.

As to `COc1ncc(NC(=O)c2csc(-c3ccccc3)n2)cc1S(=O)(=O)Nc1c(C2CC2)cccc1C1CC1` [compound 2499], the EC50 is below 10 µM and the Emax lay within 160 to 199%.

Regarding `CCOc1c(C(=O)Nc2cnc(OC)c(S(=O)(=O)Nc3c(C)cccc3C)c2)cnn1C` [compound 2675], the activation at 50 µM lay within 120 to 150%.

Turning to `COc1ncc(NC(=O)c2cc(C)on2)cc1S(=O)(=O)Nc1c(C)cccc1C` [compound 2738], the activation at 50 µM fell in the range of 151 to 180%.

In the case of `O=C(Nc1cc(S(=O)(=O)Nc2ccc(Cl)cc2)cc[n+]1[O-])c1cnc(-c2ccccc2)[nH]1` [compound 1321, 4-(N-(4-chlorophenyl)sulfamoyl)-2-(2-phenyl-1H-imidazole-5-carboxamido) pyridine 1-oxide], the EC50 is 10 to 20 µM and the Emax lay in the range of 160 to 199%.

Take `COc1ncc(NC(=O)c2csc(-c3ccccc3)n2)cc1S(=O)(=O)Nc1ncc(Cl)cn1` [compound 1383, N-(5-(N-(5-chloropyrimidin-2-yl)sulfamoyl)-6-methoxypyridin-3-yl)-2-phenylthiazole-4-carboxamide]: the EC50 was in the range of 20 to 100 µM and the Emax is above 300%.

For `COCc1c[nH]c(C(=O)Nc2cnc(OC)c(S(=O)(=O)Nc3c(C)cccc3C)c2)c1` [compound 2785], the activation at 50 µM fell in the range of 120 to 150%.

`COc1ncc(NC(=O)c2cn[nH]c2C)cc1S(=O)(=O)Nc1c(C)cccc1C` [compound 2724]: the activation at 50 µM lay within 120 to 150%.

With `COc1ncc(NC(=O)c2csc3c2CN(C)CC3)cc1S(=O)(=O)Nc1c(C)cccc1C` [compound 1956, N-(5-(N-(2,6-dimethylphenyl)sulfamoyl)-6-methoxypyridin-3-yl)-5-methyl-4,5,6,7-tetrahydrothieno[3,2-c]pyridine-3-carboxamide], the EC50 was 20 to 100 µM and the Emax fell in the range of 200 to 300%.

Regarding `COc1ncc(NC(=O)c2cccc3c2OC(C)(C)C3)cc1S(=O)(=O)Nc1c(C)cccc1C` [compound 1379, N-(5-(N-(2,6-dimethylphenyl)sulfamoyl)-6-methoxypyridin-3-yl)-2,2-dimethyl-2,3-dihydrobenzofuran-7-carboxamide], the EC50 was 20 to 100 µM and the Emax lay in the range of 200 to 300%.

With `COc1ncc(NC(=O)c2ccc3c(c2)NC(=O)CC3)cc1S(=O)(=O)Nc1c(C)cccc1C` [compound 2677], the activation at 50 µM fell in the range of 120 to 150%.

Consider `CCn1nc(C(=O)Nc2cnc(OC)c(S(=O)(=O)Nc3c(C)cccc3C)c2)cc1C` [compound 2691], for which the activation at 50 µM fell in the range of 181 to 352%.

With `COc1ncc(NC(=O)c2ccc(N3CCN(C)CC3)c(F)c2)cc1S(=O)(=O)Nc1c(C)cccc1C` [compound 2742], the activation at 50 µM lay within 181 to 352%.

As for `CCCc1onc(C)c1C(=O)Nc1cnc(OC)c(S(=O)(=O)Nc2c(C)cccc2C)c1` [compound 2726], the activation at 50 µM lay in the range of 181 to 352%.

For `COc1ncc(NC(=O)c2coc(-c3cc(F)c(F)c(F)c3)n2)cc1S(=O)(=O)Nc1cccc(C(F)(F)F)n1` [compound 2151], the EC50 was in the range of 20 to 100 µM and the Emax lay within 200 to 300%.

In the case of `COc1ncc(NC(=O)c2coc(-c3ccccc3)n2)cc1S(=O)(=O)Nc1c(C2CC2)cccc1C1CC1` [compound 2497], the EC50 was below 10 µM and the Emax is 160 to 199%.

On to `CNc1ncc(C(F)(F)F)cc1NS(=O)(=O)c1cc(NC(=O)c2ncc(-c3ccccc3)o2)cnc1OC` [compound 1824], for which the EC50 is 20 to 100 µM and the Emax lay in the range of 160 to 199%.

As for `COc1ncc(NC(=O)c2cccn3cnnc23)cc1S(=O)(=O)Nc1c(C)cccc1C` [compound 2625], the activation at 50 µM lay in the range of 181 to 352%.

Turning to `COc1ncc(NC(=O)c2csc(-c3ccccc3)n2)cc1S(=O)(=O)Nc1c(C)cccc1O` [compound 1953, N-(5-(N-(2-hydroxy-6-methylphenyl)sulfamoyl)-6-methoxypyridin-3-yl)-2-phenylthiazole-4-carboxamide], the EC50 was in the range of 20 to 100 µM and the Emax was 119 to 159%.

For the compound `COc1ncc(NC(=O)c2ccsn2)cc1S(=O)(=O)Nc1c(C)cccc1C` [compound 2595], the activation at 50 µM lay within 120 to 150%.

Take `COc1ncc(NC(=O)c2sccc2C(F)(F)F)cc1S(=O)(=O)Nc1c(C)cccc1C` [compound 2694]: the activation at 50 µM lay in the range of 181 to 352%.

As for `COc1ncc(NC(=O)c2ncoc2C)cc1S(=O)(=O)Nc1ccc(Cl)cc1` [compound 1959, N-(5-(N-(4-chlorophenyl)sulfamoyl)-6-methoxypyridin-3-yl)-5-methyloxazole-4-carboxamide], the EC50 lay within 10 to 20 µM and the Emax was 160 to 199%.

As to `COc1cccc(OC)c1NS(=O)(=O)c1cc(NC(=O)c2ncc(-c3ccccc3)o2)cnc1OC` [compound 1706], the EC50 lay within 10 to 20 µM and the Emax is 119 to 159%.

For the compound `COc1ncc(NC(=O)c2cccc(N3CCOCC3)c2C)cc1S(=O)(=O)Nc1c(C)cccc1C` [compound 2782], the activation at 50 µM was in the range of 181 to 352%.

Turning to `COc1ccc(C(=O)Nc2cnc(OC)c(S(=O)(=O)Nc3c(C)cccc3C)c2)cn1` [compound 2556], the activation at 50 µM was 151 to 180%.

For the compound `COc1ncc(NC(=O)c2cc(C)nn2C(F)F)cc1S(=O)(=O)Nc1c(C)cccc1C` [compound 2646], the activation at 50 µM was in the range of 151 to 180%.

For the compound `COc1ncc(NC(=O)c2nn(C)c(C)c2Cl)cc1S(=O)(=O)Nc1c(C)cccc1C` [compound 2710], the activation at 50 µM is 181 to 352%.

Consider `COc1ncc(NC(=O)c2coc(-c3ccccc3)n2)cc1S(=O)(=O)Nc1ccc(F)cc1C` [compound 1950, N-(5-(N-(4-fluoro-2-methylphenyl)sulfamoyl)-6-methoxypyridin-3-yl)-2-phenyloxazole-4-carboxamide], for which the EC50 is below 10 µM and the Emax was in the range of 119 to 159%.

As to `COc1ccc(F)cc1C(=O)Nc1cnc(OC)c(S(=O)(=O)Nc2c(C)cccc2C)c1` [compound 1990, N-(5-(N-(2,6-dimethylphenyl)sulfamoyl)-6-methoxypyridin-3-yl)-5-fluoro-2-methoxybenzamide], the EC50 was 10 to 20 µM and the Emax was in the range of 200 to 300%.

Consider `COc1ncc(NC(=O)c2ccn(C)n2)cc1S(=O)(=O)Nc1c(C)cccc1C` [compound 2586], for which the activation at 50 µM fell in the range of 120 to 150%.

As for `COc1ncccc1C(=O)Nc1cnc(OC)c(S(=O)(=O)Nc2c(C)cccc2C)c1` [compound 2535], the activation at 50 µM was in the range of 151 to 180%.
